Laboratory results reported in ChEMBL document CHEMBL1201862, “PubChem BioAssay data set” (2004).
The source made the active and inactive calls.

Tests used:
Protein RecA = molecular target: T1, Protein RecA (Mycobacterium tuberculosis, UniProt P9WHJ3); experiment: Fluorescence Cell-Free Homogeneous Dose Retest to Identify Inhibitors of RecA-Intein Splicing Activity. [Related pubchem assays (depositor defined):AID2097, AID2223, AID489010, AID492950]; type: functional
T1 sequence (P9WHJ3 whole entry): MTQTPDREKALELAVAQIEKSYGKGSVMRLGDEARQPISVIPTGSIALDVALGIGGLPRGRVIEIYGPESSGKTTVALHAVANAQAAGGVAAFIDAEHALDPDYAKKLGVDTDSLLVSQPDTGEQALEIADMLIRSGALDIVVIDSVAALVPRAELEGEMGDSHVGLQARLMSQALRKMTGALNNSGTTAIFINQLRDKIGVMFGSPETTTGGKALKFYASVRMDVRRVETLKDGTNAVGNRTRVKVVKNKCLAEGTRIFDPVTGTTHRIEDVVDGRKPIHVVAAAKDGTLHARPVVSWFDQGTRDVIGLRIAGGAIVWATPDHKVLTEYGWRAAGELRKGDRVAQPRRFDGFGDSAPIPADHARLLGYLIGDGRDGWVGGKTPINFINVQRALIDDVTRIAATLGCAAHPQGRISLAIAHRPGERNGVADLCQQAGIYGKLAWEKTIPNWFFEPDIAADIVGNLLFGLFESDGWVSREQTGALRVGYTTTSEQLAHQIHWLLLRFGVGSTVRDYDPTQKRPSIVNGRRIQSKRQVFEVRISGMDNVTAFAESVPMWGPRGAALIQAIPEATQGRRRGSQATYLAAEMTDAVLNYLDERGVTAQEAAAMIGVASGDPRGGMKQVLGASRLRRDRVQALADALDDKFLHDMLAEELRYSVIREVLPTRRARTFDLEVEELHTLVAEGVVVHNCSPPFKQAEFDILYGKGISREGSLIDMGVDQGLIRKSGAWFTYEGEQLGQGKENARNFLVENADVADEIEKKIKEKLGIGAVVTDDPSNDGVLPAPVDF

[1] = molecular target: T2, Replicative DNA helicase DnaB (Mycobacterium tuberculosis, UniProt P9WMR3); experiment: DnaB intein splicing inhibitors, dose response, biochemical, cell-free fluorescence (AID 449749); type: functional
T2 sequence (P9WMR3 whole entry): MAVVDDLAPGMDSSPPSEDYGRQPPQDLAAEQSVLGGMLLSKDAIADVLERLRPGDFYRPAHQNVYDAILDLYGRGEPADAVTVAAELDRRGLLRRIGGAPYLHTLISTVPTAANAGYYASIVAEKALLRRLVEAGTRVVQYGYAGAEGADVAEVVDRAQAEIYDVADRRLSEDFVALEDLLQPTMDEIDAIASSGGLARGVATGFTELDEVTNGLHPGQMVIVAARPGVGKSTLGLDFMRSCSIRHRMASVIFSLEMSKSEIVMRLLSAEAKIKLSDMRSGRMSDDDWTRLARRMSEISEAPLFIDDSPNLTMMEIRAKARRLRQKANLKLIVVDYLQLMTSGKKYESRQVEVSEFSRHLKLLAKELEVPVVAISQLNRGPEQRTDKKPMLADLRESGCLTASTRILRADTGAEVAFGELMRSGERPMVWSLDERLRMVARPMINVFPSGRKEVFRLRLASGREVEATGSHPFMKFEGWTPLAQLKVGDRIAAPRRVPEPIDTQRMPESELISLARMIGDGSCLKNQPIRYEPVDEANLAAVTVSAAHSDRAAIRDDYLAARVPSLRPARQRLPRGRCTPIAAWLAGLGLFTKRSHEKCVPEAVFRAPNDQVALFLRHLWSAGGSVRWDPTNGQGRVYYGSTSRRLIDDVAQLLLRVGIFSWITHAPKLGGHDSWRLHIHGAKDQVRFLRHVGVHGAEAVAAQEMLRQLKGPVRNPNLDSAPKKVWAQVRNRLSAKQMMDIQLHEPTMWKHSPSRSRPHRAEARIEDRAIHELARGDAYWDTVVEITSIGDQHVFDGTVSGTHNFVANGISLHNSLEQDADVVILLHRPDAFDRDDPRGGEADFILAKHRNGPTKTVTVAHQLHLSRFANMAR

[2] = inhibitors of intracellular T. cruzi replication, confirmation, NIH3T3 host cells, beta-gal luminescence (AID 2044); type: functional, cell-based;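 further: intracellular parasites grown in NIH/3T3 mouse fibroblasts as host cells; luminescent beta-galactosidase reporter signal from transgenic T. cruzi replicating inside host cells; inhibitors lower the luminescence signal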
[3] = cytotoxicity toward NIH3T3 fibroblasts, dose response, counter-screen, cell-based, ATP luminescence, mouse fibroblasts (AID 2010); type: functional;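 further: cells exposed to compound for about 90 hours before reading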
INS1 = experiment: beta cell apoptosis inhibitors, cytokine rescue, dose response, luminescence, retest (AID 449756); type: functional, cell-based; settings: Rattus norvegicus;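 further: cell death triggered by IL-1 beta plus TNF-alpha plus IFN-gamma mixture; protective hits raise ATP signal compared with cytokine alone wells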
Cytochrome P450 2D6 = Cytochrome P450 2D6 (Homo sapiens, UniProt P10635);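 further: CYP2D6 member of a cytochrome P450 panel assay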
Cytochrome P450 3A4 = Cytochrome P450 3A4 (Homo sapiens, UniProt P08684);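 further: CYP3A4 tested as one member of a cytochrome P450 panel screen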
Cytochrome P450 1A2 = molecular target: T3, Cytochrome P450 1A2 (Homo sapiens, UniProt P05177);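 further: PubChem cytochrome P450 panel assay, CYP1A2 panel member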
T3 sequence (P05177 whole entry): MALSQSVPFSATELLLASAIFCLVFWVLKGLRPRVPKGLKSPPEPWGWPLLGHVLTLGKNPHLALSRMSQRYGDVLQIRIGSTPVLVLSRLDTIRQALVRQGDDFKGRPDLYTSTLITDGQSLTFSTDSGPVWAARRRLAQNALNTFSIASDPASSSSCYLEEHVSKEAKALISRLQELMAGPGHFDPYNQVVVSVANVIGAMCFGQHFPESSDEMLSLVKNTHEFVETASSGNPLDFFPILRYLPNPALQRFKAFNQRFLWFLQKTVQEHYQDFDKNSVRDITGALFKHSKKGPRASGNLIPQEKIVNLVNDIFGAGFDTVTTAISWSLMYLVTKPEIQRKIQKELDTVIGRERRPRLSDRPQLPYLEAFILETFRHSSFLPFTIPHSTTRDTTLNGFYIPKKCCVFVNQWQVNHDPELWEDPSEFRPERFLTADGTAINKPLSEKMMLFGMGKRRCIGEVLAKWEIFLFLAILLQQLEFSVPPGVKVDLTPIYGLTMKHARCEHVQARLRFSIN

Cytochrome P450 2C19 = Cytochrome P450 2C19 (Homo sapiens, UniProt P33261); experiment: Cytochrome panel assay with activity outcomes. Panel member name: p450-cyp2c19 Compounds with AC50 equal or less than 10 uM are considered active; type: functional
[4] = molecular target: T4, Heat shock factor protein 1 (Mus musculus, UniProt P38532); experiment: HSF1 potentiators in luciferase reporter cells, confirmation, cell-based, NIH3T3, luminescence, dose retest (AID 435004); type: functional;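 further: stress induced by proteasome inhibitor MG132 added 30 min after compound; luciferase reporter driven by HSF1 response element in NIH3T3 cells; actives raise luminescence as potentiators of the MG132 stress response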
T4 sequence (P38532 whole entry): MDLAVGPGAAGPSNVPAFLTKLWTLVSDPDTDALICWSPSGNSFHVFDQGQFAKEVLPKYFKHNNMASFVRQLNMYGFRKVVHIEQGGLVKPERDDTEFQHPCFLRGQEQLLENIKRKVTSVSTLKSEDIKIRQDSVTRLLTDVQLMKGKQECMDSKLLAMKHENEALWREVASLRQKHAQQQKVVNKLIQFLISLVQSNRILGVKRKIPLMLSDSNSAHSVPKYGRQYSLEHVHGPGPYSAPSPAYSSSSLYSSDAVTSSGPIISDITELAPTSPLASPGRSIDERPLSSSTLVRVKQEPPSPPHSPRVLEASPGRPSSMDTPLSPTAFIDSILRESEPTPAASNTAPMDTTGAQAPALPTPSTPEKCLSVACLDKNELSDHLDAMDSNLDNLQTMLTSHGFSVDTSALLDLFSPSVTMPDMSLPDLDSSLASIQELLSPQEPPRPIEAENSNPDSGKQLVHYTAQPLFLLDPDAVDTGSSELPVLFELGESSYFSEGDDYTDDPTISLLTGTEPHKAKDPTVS

Cytochrome P450 2C9 = Cytochrome P450 2C9 (Homo sapiens, UniProt P11712)
[5] = HEp-2 cell cytotoxicity, dose response, cytotoxicity control for RSV inhibitor project, HTS (AID 2410); type: functional; settings: human respiratory syncytial virus
[6] = molecular target: Luciferin 4-monooxygenase (Photinus pyralis, UniProt P08659); experiment: firefly luciferase enzyme inhibitors, dose response, biochemical, luminescence (AID 1891)
[7] = Luminescence Cell-Based Dose Confirmation HTS to Identify Inhibitors of Platelet Dense Granule Release. [Related pubchem assays: 1663 (Primary HTS), 1678 (Summary of Project)]; type: functional

Sequence of Cytochrome P450 3A4 (P08684 whole entry): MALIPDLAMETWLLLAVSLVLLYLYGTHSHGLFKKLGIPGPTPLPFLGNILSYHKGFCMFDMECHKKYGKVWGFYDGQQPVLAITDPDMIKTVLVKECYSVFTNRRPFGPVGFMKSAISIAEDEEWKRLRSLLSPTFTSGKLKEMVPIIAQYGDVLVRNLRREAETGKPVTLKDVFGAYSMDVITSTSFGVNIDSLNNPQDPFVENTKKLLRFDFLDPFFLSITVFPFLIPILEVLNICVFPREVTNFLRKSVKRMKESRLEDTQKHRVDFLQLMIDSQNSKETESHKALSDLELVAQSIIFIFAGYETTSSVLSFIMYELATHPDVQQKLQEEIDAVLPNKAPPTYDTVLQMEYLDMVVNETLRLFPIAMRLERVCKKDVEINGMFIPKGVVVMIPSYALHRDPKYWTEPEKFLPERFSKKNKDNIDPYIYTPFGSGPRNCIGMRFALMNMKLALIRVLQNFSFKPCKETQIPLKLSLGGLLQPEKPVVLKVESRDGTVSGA
Sequence of Cytochrome P450 2C19 (P33261 whole entry): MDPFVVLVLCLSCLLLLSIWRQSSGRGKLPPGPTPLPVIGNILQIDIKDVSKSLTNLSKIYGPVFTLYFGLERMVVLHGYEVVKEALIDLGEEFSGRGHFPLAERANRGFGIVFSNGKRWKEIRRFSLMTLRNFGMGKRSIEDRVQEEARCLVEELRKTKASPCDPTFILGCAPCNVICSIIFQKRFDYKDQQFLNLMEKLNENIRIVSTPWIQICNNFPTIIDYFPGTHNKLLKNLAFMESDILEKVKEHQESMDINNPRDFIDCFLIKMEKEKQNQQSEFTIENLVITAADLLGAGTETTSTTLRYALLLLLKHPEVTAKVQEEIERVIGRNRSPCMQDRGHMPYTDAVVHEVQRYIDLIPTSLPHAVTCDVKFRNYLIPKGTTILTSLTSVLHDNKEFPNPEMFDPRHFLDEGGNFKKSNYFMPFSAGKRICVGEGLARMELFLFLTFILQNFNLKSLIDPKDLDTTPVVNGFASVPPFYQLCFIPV
Sequence of Cytochrome P450 2C9 (P11712 whole entry): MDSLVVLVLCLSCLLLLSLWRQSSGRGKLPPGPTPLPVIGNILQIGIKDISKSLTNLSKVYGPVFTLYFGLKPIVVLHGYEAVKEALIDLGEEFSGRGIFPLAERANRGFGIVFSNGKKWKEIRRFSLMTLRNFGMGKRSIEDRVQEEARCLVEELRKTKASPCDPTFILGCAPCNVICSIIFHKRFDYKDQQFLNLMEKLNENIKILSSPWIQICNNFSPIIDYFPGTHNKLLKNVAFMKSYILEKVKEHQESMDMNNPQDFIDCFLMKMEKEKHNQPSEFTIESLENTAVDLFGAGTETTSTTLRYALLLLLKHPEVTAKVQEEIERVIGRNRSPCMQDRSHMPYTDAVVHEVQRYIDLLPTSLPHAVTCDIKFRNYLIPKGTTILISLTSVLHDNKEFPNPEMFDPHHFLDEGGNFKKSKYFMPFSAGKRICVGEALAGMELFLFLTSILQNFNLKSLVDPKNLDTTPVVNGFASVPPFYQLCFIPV
Sequence of Luciferin 4-monooxygenase (P08659 whole entry): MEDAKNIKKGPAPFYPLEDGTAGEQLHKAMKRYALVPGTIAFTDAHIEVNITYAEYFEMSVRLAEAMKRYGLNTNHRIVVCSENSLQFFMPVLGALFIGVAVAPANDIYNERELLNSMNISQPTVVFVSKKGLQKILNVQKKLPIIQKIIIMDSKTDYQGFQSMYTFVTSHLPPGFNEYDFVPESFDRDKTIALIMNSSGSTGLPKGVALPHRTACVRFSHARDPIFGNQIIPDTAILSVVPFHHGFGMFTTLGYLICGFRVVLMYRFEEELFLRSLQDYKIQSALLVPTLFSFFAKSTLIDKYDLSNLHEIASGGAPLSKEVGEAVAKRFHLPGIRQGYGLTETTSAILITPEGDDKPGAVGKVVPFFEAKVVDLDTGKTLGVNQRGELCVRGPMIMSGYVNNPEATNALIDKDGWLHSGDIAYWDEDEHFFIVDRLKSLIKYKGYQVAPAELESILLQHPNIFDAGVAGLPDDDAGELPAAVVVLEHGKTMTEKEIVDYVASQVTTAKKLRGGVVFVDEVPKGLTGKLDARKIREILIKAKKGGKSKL
Sequence of Cytochrome P450 2D6 (P10635 whole entry): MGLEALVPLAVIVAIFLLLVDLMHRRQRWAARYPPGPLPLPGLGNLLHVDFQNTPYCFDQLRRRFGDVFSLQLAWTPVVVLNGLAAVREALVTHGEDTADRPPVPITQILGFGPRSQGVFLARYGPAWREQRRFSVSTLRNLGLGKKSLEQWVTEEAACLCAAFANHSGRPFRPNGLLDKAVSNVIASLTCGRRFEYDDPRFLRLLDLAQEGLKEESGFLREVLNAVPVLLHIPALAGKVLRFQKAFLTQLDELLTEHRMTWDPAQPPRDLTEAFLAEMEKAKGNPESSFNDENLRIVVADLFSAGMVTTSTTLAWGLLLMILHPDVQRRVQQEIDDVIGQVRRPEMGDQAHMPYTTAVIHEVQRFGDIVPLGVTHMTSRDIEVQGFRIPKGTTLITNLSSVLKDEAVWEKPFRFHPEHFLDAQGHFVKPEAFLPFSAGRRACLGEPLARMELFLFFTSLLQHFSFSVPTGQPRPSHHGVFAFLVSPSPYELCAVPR

Cc1ccc(C(=O)Oc2ccc([N+](=O)[O-])cc2)cc1S(=O)(=O)N1CCCCCC1
EC50 (Protein RecA): 4.99 µM (active)
AC50 [1]: 3.4 µM (active)

C/C(=N\N1C(=O)c2ccccc2NC1c1ccco1)c1ccccc1O (configuration not stated)
EC50 [2]: 1.66 µM (active)
EC50 [3]: 4.99 µM (active)
AC50 (INS1): 2.21 µM (active)

O=C(c1ccc(F)c(S(=O)(=O)N2CCOCC2)c1)N1CCN(c2ccc(F)cc2)CC1
AC50 (INS1): > 260 µM (inactive)

N#CC1=C(N)Oc2[nH]nc(-c3ccncc3)c2C1c1ccsc1 (configuration not stated)
EC50 (Protein RecA): 3.27 µM (active)
AC50 [1]: 13.4 µM (active)

COc1cc2c(cc1OC)C(CCN)=NCC2
AC50 (Cytochrome P450 2D6): 1.58 µM (inconclusive)
AC50 (Cytochrome P450 3A4): 3.98 µM (inconclusive)
AC50 (Cytochrome P450 1A2): 5.01 µM (inconclusive)
AC50 (Cytochrome P450 2C19): inconclusive

COCCCNC(=O)CCn1c(=O)c2ccccc2n(CC(=O)Nc2cc(Cl)ccc2C)c1=O
EC50 [4]: > 260 µM (inactive)

C=CCOc1ccc2cccc(/C=N/NC(=O)c3cc4cc([N+](=O)[O-])ccc4s3)c2c1
AC50 (Cytochrome P450 3A4): 2.51 µM (inconclusive)
AC50 (Cytochrome P450 2C19; read-out: AC50): 0.398 µM (inconclusive)

CC(C)=C1C(=O)C(c2ccccc2)=C2CN3C(=O)N(CCc4ccccc4)C(=O)[C@]3(Cc3ccccc3)[C@H]21
AC50 (Cytochrome P450 3A4): 5.01 µM (inconclusive)
AC50 (Cytochrome P450 2C19; read-out: AC50): 25.1 µM (inconclusive)

Cc1c(/C=N/NC(=O)c2ccc(Br)o2)cnn1C
EC50 [4]: > 260 µM (inactive)

Cc1cc(C)nc(N/N=C2/CCCC/C2=C\c2ccccc2)n1
AC50 (INS1): 0.397 µM (active)

N#CC1=C(N)Oc2[nH]nc(-c3cccs3)c2C1c1ccccc1C(=O)O (configuration not stated)
EC50 (Protein RecA): 1.56 µM (active)
AC50 [1]: 2.69 µM (active)

COc1ncc2nc(-c3cc(F)cc(F)c3)c(=O)n(C3CC3)c2n1
AC50 (Cytochrome P450 2C9): 31.6 µM (inconclusive)
AC50 (Cytochrome P450 3A4): 12.6 µM (inconclusive)

O=C(Cc1cc(O)n[nH]1)N/N=C/c1c(F)cccc1Cl
EC50 (Protein RecA): 1.53 µM (active)
AC50 [1]: 1.87 µM (active)

COc1cccc(/C=N\NC(=O)C2C(=O)NCC2c2ccccc2)c1O (configuration not stated)
AC50 (Cytochrome P450 3A4): 25.1 µM (inconclusive)
AC50 (Cytochrome P450 1A2): 17.8 µM (inconclusive)
AC50 (Cytochrome P450 2C19; read-out: AC50): 39.8 µM (inconclusive)

CC(=O)Nc1nnc(SCC(=O)c2ccc(F)cc2)s1
EC50 [4]: 67.4 µM (active)

CCC(=NNC(=O)c1ccc2c(c1)nc(C)n2CC)c1cc(F)ccc1O
AC50 (INS1): 2.32 µM (active)

Cc1sc2nc(CSc3cccc(C(F)(F)F)c3)nc(O)c2c1C
EC50 [4]: > 260 µM (inactive)

COCCn1c(=O)[nH]c2cc(C(=O)N3CCN(c4cccc(Cl)c4)CC3)ccc2c1=O
EC50 [4]: > 260 µM (inactive)

O=C(Nc1cccc(Cl)c1)Nn1cnnc1
AC50 (Cytochrome P450 3A4): 3.16 µM (inconclusive)
AC50 (Cytochrome P450 1A2): 3.16 µM (inconclusive)

CCOc1cc(/C=N/NC(=O)Cn2nc([N+](=O)[O-])cc2C)cc(Br)c1OCc1ccccc1C
EC50 [2]: 2.32 µM (active)
EC50 [3]: > 60 µM (not active)
CC50 [5]: 8.17 µM (active)
EC50 [4]: > 260 µM (inactive)

COc1ccccc1NC(=O)C1=C(C)N=C2CC(c3ccc(OC)c(OC)c3)CC(O)=C2C1c1coc2ccccc2c1=O (configuration not stated)
EC50 [4]: 34.5 µM (active)

CC(=O)Nc1ccccc1NC(=O)C/C(C)=N/NC(=O)C(=O)N1CCCCC1
EC50 (Protein RecA): 0.891 µM (active)
AC50 [1]: 5.84 µM (active)

S=C1N(c2ccccc2)C(c2ccc(Cl)cc2)N2CCCN12 (configuration not stated)
AC50 (Cytochrome P450 2C9): 10 µM (inconclusive)
AC50 (Cytochrome P450 3A4): 12.6 µM (inconclusive)

COP(=O)(OC)c1nc(-c2cccc3ccccc23)oc1NCc1ccccc1
EC50 [4]: > 260 µM (inactive)

N=C(N)N/N=C(/c1ccccc1)c1ccc(O)cc1O
AC50 (Cytochrome P450 3A4): 3.98 µM (inconclusive)

CC1(C)CC(=O)C2=C(C1)N(Cc1ccccc1)C(=O)C2(O)C(F)(F)F (configuration not stated)
EC50 [6]: > 112 µM (not active)
EC50 [7]: > 112 µM (not active)
AC50 (Cytochrome P450 3A4): 20 µM (inconclusive)

Cc1cc2oc3c(c(=O)c2cc1C)C(c1ccc(C(C)C)cc1)N(CCCN1CCOCC1)C3=O (configuration not stated)
EC50 [4]: > 260 µM (inactive)

O=C(Nc1ccc(F)cc1F)N1CCCN(CCOc2ccccc2)CC1
AC50 (INS1): 13.3 µM (active)

COc1ccc(C(=O)Nc2ccc(O)c3ccccc23)cc1OC
EC50 (Protein RecA): 8.4 µM (active)
AC50 [1]: 82 µM (active)
